# From patent US12486301B2, “8-fluoro-4-alkylumbelliferyl α-D-glucopyranoside, biological sterilization indicator including the same and its use in a method of determining efficacy of a sterilization process” (Solventum Intellectual Properties Company, priority 2019, dated 2025)
# Legend:
# [1] = Enzyme substrate degradation in culture media at various temperatures (fluorescence); type: physicochemical; conditions: 0.3 mg/mL; for MEASURED FLUORESCENCE, RFU 70° C. 15 min: 70° C. dry heat block 15 min; for MEASURED FLUORESCENCE, RFU 100° C. 15 + 15 min: 100° C. 15 min, second time 15 min; for MEASURED FLUORESCENCE, RFU 100° C. 15 min: 100° C. heat block 15 min; for MEASURED FLUORESCENCE, RFU RT 15 min: room temperature (24.5° C.)
# Protocol: Culture media was prepared by dissolving 5 g/L peptone C (BD 211921) and 12 g/L phytone peptone (BD BBL 211906) in deionized water. The pH was adjusted with 1 N NaOH or 0.1 N HCl, the media brought to volume, and then filter sterilized with a 0.22 micron PES filter. Stock solutions ([…]) of 8′-fluoro-4′-methylumbelliferyl-α-D-glucopyranoside, 6′-fluoro-4′-methylumbelliferyl-α-D-glucopyranoside, and 4-methylumbelliferyl-α-D-glucopyranoside were prepared in DMSO. The aforementioned substrates were added to culture media at a final concentration of 0.1 mg/ml and media were then 0.22 μm filter sterilized.
# (§1) One milliliter of filter-sterilized culture media (pH 6) containing 0.3 mg/ml of 8′-fluoro-4′-methylumbelliferyl-[…]-D-glucopyranoside substrate was transferred to three 1.5 ml microcentrifuge tubes. One of the 1.5 ml tubes was kept at room temperature (24.5° C.). The second tube was placed in a 70° C. dry heat block for 15 min and the third tube was placed in a 100° C. heat block for 15 min. Tubes were kept at room temperature for 30 min following heat exposure, briefly vortexed and centrifuged to collect liquid. One hundred microliters of culture media with substrate from each of the tubes was transferred to two wells (100 microliters per well) of a black 96-well microtiter plate with (NUNC #165301, Thermo Fisher Scientific). The top of the plate was covered with an optically clear sealing film (product #4311971, Applied Biosystems Corporation). Fluorescence readings (360 nm excitation/455 nm emission at 50% gain) were taken from the top of the plate.
# (§2) The tube exposed to 100° C. (with 800 ul of remaining media with substrate) was exposed for a second time to 100° C. for 15 min in a dry heat block. One hundred microliters of culture media with substrate from the tube was transferred to two wells (100 microliters per well) of a black 96-well microtiter plate with (NUNC #165301, Thermo Fisher Scientific). The top of the plate was covered with an optically clear sealing film (product #4311971, Applied Biosystems Corporation). Fluorescence readings (360 nm excitation/455 nm emission at 50% gain) were taken from the top of the plate. In Table 9, the mean fluorescence values detected (RFU) for each of the heating conditions are reported.
# as §1, with “7)” for “6)”
# as §2, with “10,” for “9,”, “reported. […]” for “reported.”
# [2] = test system: Geobacillus stearothermophilus spores (ATCC 7953); assay: Fluorescence from enzyme substrates incubated with Geobacillus stearothermophilus spores in culture media; type: cell-based; conditions: substrate 0.1 mg/mL, 60° C.
# [3] = pH 6 culture media, no spores, 360 nm excitation/455 nm emission
# [4] = pH 6 culture media, 5×10^3 spores
# [5] = pH 6 culture media, 5×10^6 spores
# [6] = pH 7 culture media, 5×10^3 spores
# [7] = pH 7 culture media, 5×10^6 spores
# [8] = pH 8 culture media, 5×10^3 spores
# [9] = pH 8 culture media, 5×10^6 spores
# [10] = pH 9 culture media, 5×10^3 spores
# [11] = pH 9 culture media, 5×10^6 spores
structure (smiles),measurement,setting,value
"Cc1cc(=O)oc2c(F)c(O[C@H]3O[C@H](CO)[C@@H](O)[C@H](O)[C@H]3O)ccc12 [Example 1, 8′-Fluoro-4′-methylumbelliferyl […]-D-glucopyranoside]","MEASURED FLUORESCENCE, RFU 70° C. 15 min",[1]; pH 6 culture media,799.5 RFU
same,"MEASURED FLUORESCENCE, RFU 100° C. 15 + 15 min",[1]; pH 6 culture media,1114.5 RFU
same,"MEASURED FLUORESCENCE, RFU 100° C. 15 min",[1]; pH 6 culture media,957.5 RFU
same,"MEASURED FLUORESCENCE, RFU RT 15 min",[1]; [3],751.5 RFU
same,"MEASURED FLUORESCENCE, RFU 70° C. 15 min",[1]; pH 7 culture media,759.5 RFU
same,"MEASURED FLUORESCENCE, RFU 100° C. 15 + 15 min",[1]; pH 7 culture media,1529 RFU
same,"MEASURED FLUORESCENCE, RFU 100° C. 15 min",[1]; pH 7 culture media,1195 RFU
same,"MEASURED FLUORESCENCE, RFU RT 15 min",[1]; pH 7 culture media,740.5 RFU
same,"MEASURED FLUORESCENCE, RFU 70° C. 15 min",[1]; pH 8 culture media,832 RFU
same,"MEASURED FLUORESCENCE, RFU 100° C. 15 + 15 min",[1]; pH 8 culture media,1543 RFU
same,"MEASURED FLUORESCENCE, RFU 100° C. 15 min",[1]; pH 8 culture media,1274 RFU
same,"MEASURED FLUORESCENCE, RFU RT 15 min",[1]; pH 8 culture media,774 RFU
same,"MEASURED FLUORESCENCE, RFU 70° C. 15 min",[1]; pH 9 culture media,905.5 RFU
same,"MEASURED FLUORESCENCE, RFU 100° C. 15 + 15 min",[1]; pH 9 culture media,1770.5 RFU
same,"MEASURED FLUORESCENCE, RFU 100° C. 15 min",[1]; pH 9 culture media,1343.5 RFU
same,"MEASURED FLUORESCENCE, RFU RT 15 min",[1]; pH 9 culture media,811.5 RFU
same,"MEASURED FLUORESCENCE, RFU +5 min",[2]; [4],1212 RFU
same,"MEASURED FLUORESCENCE, RFU +30 min",[2]; [4],5600 RFU
same,"MEASURED FLUORESCENCE, RFU 10 sec",[2]; [5],30514 RFU
same,"MEASURED FLUORESCENCE, RFU +5 min",[2]; [5],34348 RFU
same,"MEASURED FLUORESCENCE, RFU +10 min",[2]; [5],32547 RFU
same,"MEASURED FLUORESCENCE, RFU +30 min",[2]; [5],30518 RFU
same,"MEASURED FLUORESCENCE, RFU 10 sec",[2]; [6],886 RFU
same,"MEASURED FLUORESCENCE, RFU 10 sec",[2]; [7],49649 RFU
same,"MEASURED FLUORESCENCE, RFU +5 min",[2]; [7],54906 RFU
same,"MEASURED FLUORESCENCE, RFU +10 min",[2]; [7],52619 RFU
same,"MEASURED FLUORESCENCE, RFU +30 min",[2]; [7],49458 RFU
same,"MEASURED FLUORESCENCE, RFU 10 sec",[2]; [8],729 RFU
same,"MEASURED FLUORESCENCE, RFU +5 min",[2]; [8],971 RFU
same,"MEASURED FLUORESCENCE, RFU +10 min",[2]; [8],1655 RFU
same,"MEASURED FLUORESCENCE, RFU 10 sec",[2]; [9],39958 RFU
same,"MEASURED FLUORESCENCE, RFU +5 min",[2]; [9],58746 RFU
same,"MEASURED FLUORESCENCE, RFU +10 min",[2]; [9],58909 RFU
same,"MEASURED FLUORESCENCE, RFU +30 min",[2]; [9],55069 RFU
same,"MEASURED FLUORESCENCE, RFU 10 sec",[2]; [10],655 RFU
same,"MEASURED FLUORESCENCE, RFU +5 min",[2]; [10],663 RFU
same,"MEASURED FLUORESCENCE, RFU +10 min",[2]; [10],831 RFU
same,"MEASURED FLUORESCENCE, RFU +30 min",[2]; [10],2910 RFU
same,"MEASURED FLUORESCENCE, RFU 10 sec",[2]; [11],15513 RFU
same,"MEASURED FLUORESCENCE, RFU +5 min",[2]; [11],39862 RFU
same,"MEASURED FLUORESCENCE, RFU +10 min",[2]; [11],55056 RFU
same,"MEASURED FLUORESCENCE, RFU +30 min",[2]; [11],52276 RFU
"Cc1cc(=O)oc2cc(O[C@H]3O[C@H](CO)[C@@H](O)[C@H](O)[C@H]3O)c(F)cc12 [Example 6F-MUG, 6′-Fluoro-4′-methylumbelliferyl […]-D-glucopyranoside]","MEASURED FLUORESCENCE, RFU 70° C. 15 min",[1]; pH 6 culture media,932.5 RFU
same,"MEASURED FLUORESCENCE, RFU 100° C. 15 + 15 min",[1]; pH 6 culture media,2005 RFU
same,"MEASURED FLUORESCENCE, RFU 100° C. 15 min",[1]; pH 6 culture media,1486.5 RFU
same,"MEASURED FLUORESCENCE, RFU RT 15 min",[1]; [3],897.5 RFU
same,"MEASURED FLUORESCENCE, RFU 70° C. 15 min",[1]; pH 7 culture media,1012 RFU
same,"MEASURED FLUORESCENCE, RFU 100° C. 15 + 15 min",[1]; pH 7 culture media,2654.5 RFU
same,"MEASURED FLUORESCENCE, RFU 100° C. 15 min",[1]; pH 7 culture media,1690.5 RFU
same,"MEASURED FLUORESCENCE, RFU RT 15 min",[1]; pH 7 culture media,924.5 RFU
same,"MEASURED FLUORESCENCE, RFU 70° C. 15 min",[1]; pH 8 culture media,1079.5 RFU
same,"MEASURED FLUORESCENCE, RFU 100° C. 15 + 15 min",[1]; pH 8 culture media,3160.5 RFU
same,"MEASURED FLUORESCENCE, RFU 100° C. 15 min",[1]; pH 8 culture media,2121.5 RFU
same,"MEASURED FLUORESCENCE, RFU RT 15 min",[1]; pH 8 culture media,983 RFU
same,"MEASURED FLUORESCENCE, RFU 70° C. 15 min",[1]; pH 9 culture media,1218 RFU
same,"MEASURED FLUORESCENCE, RFU 100° C. 15 + 15 min",[1]; pH 9 culture media,3964 RFU
same,"MEASURED FLUORESCENCE, RFU 100° C. 15 min",[1]; pH 9 culture media,2728 RFU
same,"MEASURED FLUORESCENCE, RFU RT 15 min",[1]; pH 9 culture media,994.5 RFU
same,"MEASURED FLUORESCENCE, RFU +5 min",[2]; [4],1200 RFU
same,"MEASURED FLUORESCENCE, RFU +30 min",[2]; [4],6663 RFU
same,"MEASURED FLUORESCENCE, RFU 10 sec",[2]; [5],53357 RFU
same,"MEASURED FLUORESCENCE, RFU +5 min",[2]; [5],60972 RFU
same,"MEASURED FLUORESCENCE, RFU +10 min",[2]; [5],58039 RFU
same,"MEASURED FLUORESCENCE, RFU +30 min",[2]; [5],55966 RFU
same,"MEASURED FLUORESCENCE, RFU 10 sec",[2]; [6],879 RFU
same,"MEASURED FLUORESCENCE, RFU 10 sec",[2]; [7],67489 RFU
same,"MEASURED FLUORESCENCE, RFU +5 min",[2]; [7],80834 RFU
same,"MEASURED FLUORESCENCE, RFU +10 min",[2]; [7],78888 RFU
same,"MEASURED FLUORESCENCE, RFU +30 min",[2]; [7],75469 RFU
same,"MEASURED FLUORESCENCE, RFU 10 sec",[2]; [8],825 RFU
same,"MEASURED FLUORESCENCE, RFU +5 min",[2]; [8],878 RFU
same,"MEASURED FLUORESCENCE, RFU +10 min",[2]; [8],1204 RFU
same,"MEASURED FLUORESCENCE, RFU 10 sec",[2]; [9],49967 RFU
same,"MEASURED FLUORESCENCE, RFU +5 min",[2]; [9],81623 RFU
same,"MEASURED FLUORESCENCE, RFU +10 min",[2]; [9],85491 RFU
same,"MEASURED FLUORESCENCE, RFU +30 min",[2]; [9],78890 RFU
same,"MEASURED FLUORESCENCE, RFU 10 sec",[2]; [10],870 RFU
same,"MEASURED FLUORESCENCE, RFU +5 min",[2]; [10],833 RFU
same,"MEASURED FLUORESCENCE, RFU +10 min",[2]; [10],892 RFU
same,"MEASURED FLUORESCENCE, RFU +30 min",[2]; [10],2376 RFU
same,"MEASURED FLUORESCENCE, RFU 10 sec",[2]; [11],22519 RFU
same,"MEASURED FLUORESCENCE, RFU +5 min",[2]; [11],56806 RFU
same,"MEASURED FLUORESCENCE, RFU +10 min",[2]; [11],78179 RFU
same,"MEASURED FLUORESCENCE, RFU +30 min",[2]; [11],76196 RFU
